Laboratory results from US20240299504A1, “COMPOSITIONS AND METHODS FOR TREATING ALZHEIMERS DISEASE” (priority 2023, published 2024).

How the values were obtained:
Type in all cases: in vivo, mouse
5×FAD mice = assay: Y-maze test; details: 5×FAD female mice ~5-MO vs Veh-treated 5×FAD female
Procedure: (§1) Parathyroid hormone (human) was purchased from TOCRIS Bioscience (Cat #3011/1, Abingdon, United Kingdom). WT or 5×FAD mice (both male and female) were treated with PTH1-34 intermittently [once daily injection of hPTH1-34 (50 μg/Kg) or vehicle (0.9% sodium chloride) (as a control) by subcutaneous injection, starting at 2-MO, 5 days per week] as described previously. Mice were then subjected to behavioral tests and sacrificed for examinations of their bone and brain phenotypes at the indicated ages.
Mice (female and male) at the age of ˜5-MO were subjected to behavioral studies. The experimental procedures are described as previously. […] The total arm entries and the number of tri-ads were recorded to quantify the percentage of spontaneous alternation. For novel object recognition (NOR), which tests mouse's memory ability for a novel object, 20 min were recorded to analyze the time to explore the old object vs. the new object of each mouse. […] During test trials, one of the objects was replaced with a new object and mice were free to explore for another 20 min, and the time spent exploring the new object and the old object was recorded. The discrimination index is quantified as the novelty object preference, which is the time spent exploring the new object minus the time exploring the old object over the total exploration time.

Aβ plaques = assay: Aβ deposition assay (Thioflavin S staining); details: vs Veh
Procedure: as §1
Thioflavin S (Thio-S) staining was used for Aβ deposition assay as previously described with minimal modification. Beginning with the lateral-most section in the ROI (region of interest), every sixth tissue section of six consecutive sections was used. […] The brain slices were then washed with a series of graded EtOH in the dark as follows: 95% EtOH for 2 min, 80% EtOH for 2 min, and 70% EtOH for 2 min. Finally, the brain slices were washed with PBS 3 times in the dark and transferred to slides for sealing with an antifade fluorescence mounting medium. All the brain slices were captured on a Laser confocal microscopy. The images were adjusted to the same threshold to increase signal-to-noise ratio. Plaques >5.5 μm^2 were quantified. Four sections per mouse were quantified. The layers or sub-regions of cortex and hippocampus in each image were outlined and analyzed with the National Institutes of Health ImageJ software.

IBA1+ microglia = assay: Co-immunostaining ThioS/IBA1/LPL, microglial cells; details: 6-MO 5×FAD female mice vs Veh
Procedure: as §1
DAPI was used for nucleus staining.

IBA1 and GFAP = assay: Western blot of IBA1 and GFAP in cortex and hippocampus homogenates; details: 5×FAD brain homogenates (cortex and hippocampus), 6-MO female
Procedure: as §1
(§2) Total proteins from cortex, hippocampus, or cultured astrocytes were extracted using RIPA lysis buffer [50 mM Tris-HCl (pH7.5), 150 mM NaCl, 1 mM EDTA, 1% v/v NP-40, 0.1% SDS, 1% sodium deoxycholate supplemented with Protease Inhibitor Cocktail (Roche) and 1 mM PMSF] and analyzed by Western Blot. Lysates were cleared by centrifugation at 12,000 g for 15 min at 4° C. to remove debris and to obtain homogenates. Homogenates samples were resolved by SDS-PAGE (8˜15%) gels and then electroblotted onto nitrocellulose membranes (Cat #1620112, Bio-Rad Laboratories). […] After washing with TBST 3 times, antibody reactivity was detected by the Enhanced Chemiluminescence (ECL) detection system (Amersham Biosciences). Band density of proteins was normalized in relation to loading control and analyzed using NIH ImageJ software. […]

p16Ink4a and p53 = assay: Senescence markers in hippocampus (RT-PCR, Western blot)
Procedure: as §1, §2

CC[C@H](C)[C@H](NC(=O)[C@H](CCC(=O)O)NC(=O)[C@H](CO)NC(=O)[C@@H](NC(=O)[C@@H](N)CO)C(C)C)C(=O)N[C@@H](CCC(N)=O)C(=O)N[C@@H](CC(C)C)C(=O)N[C@@H](CCSC)C(=O)N[C@@H](Cc1cnc[nH]1)C(=O)N[C@@H](CC(N)=O)C(=O)N[C@@H](CC(C)C)C(=O)NCC(=O)N[C@@H](CCCCN)C(=O)N[C@@H](Cc1cnc[nH]1)C(=O)N[C@@H](CC(C)C)C(=O)N[C@@H](CC(N)=O)C(=O)N[C@@H](CO)C(=O)N[C@@H](CCSC)C(=O)N[C@@H](CCC(=O)O)C(=O)N[C@@H](CCCN=C(N)N)C(=O)N[C@H](C(=O)N[C@@H](CCC(=O)O)C(=O)N[C@@H](Cc1c[nH]c2ccccc12)C(=O)N[C@@H](CC(C)C)C(=O)N[C@@H](CCCN=C(N)N)C(=O)N[C@@H](CCCCN)C(=O)N[C@@H](CCCCN)C(=O)N[C@@H](CC(C)C)C(=O)N[C@@H](CCC(N)=O)C(=O)N[C@@H](CC(=O)O)C(=O)N[C@H](C(=O)N[C@@H](Cc1cnc[nH]1)C(=O)N[C@@H](CC(N)=O)C(=O)N[C@@H](Cc1ccccc1)C(=O)O)C(C)C)C(C)C [PTH1-34]
Y maze total arm entries (5×FAD mice): comparable arm entries to those of Veh-treated 5×FAD female mice
reduction in plaque density (Aβ plaques; female 5×FAD cortex): ~46%
reduction in plaque size (Aβ plaques; female 5×FAD cortex): ~34%
reduction in plaque density (Aβ plaques; female 5×FAD hippocampus): ~59%
reduction in plaque size (Aβ plaques; female 5×FAD hippocampus): ~56%
reduction in plaque density (Aβ plaques; male 5×FAD cortex): ~32%
reduction in plaque size (Aβ plaques; male 5×FAD cortex): ~28%
reduction in plaque density (Aβ plaques; male 5×FAD hippocampus): ~50%
reduction in plaque size (Aβ plaques; male 5×FAD hippocampus): ~23%
Aβ associated LPL+IBA1+ microglial cells (DAM) (IBA1+ microglia): little to no difference
IBA1+ cell density and fluorescence intensity in regions without Aβ plaques (IBA1+ microglia): comparable
ThioS+ Aβ plaque associated IBA1 fluorescence (IBA1+ microglia): unchanged
overall IBA1 fluorescence intensity (IBA1+ microglia; cortex and hippocampus): lower in PTH1-34 treated 5×FAD cortex and hippocampus than that of Veh controls
GFAP protein level (Western blot) (IBA1 and GFAP): lower
IBA1 protein level (Western blot) (IBA1 and GFAP): lower
p53 protein (Western blot) (p16Ink4a and p53; hippocampus homogenates, 6-MO female 5×FAD mice): reduced
p16Ink4a and p53 transcripts (RT-PCR) (p16Ink4a and p53; hippocampus, 6-MO 5×FAD female mice): great reduction
